Reference: EPA's ToxRefDB 2

Columns and labels:
[1] = tested on: mouse; conditions: Carcinogenicity, other, Oral, Feed, dose end: 24 month, group: systemic
[2] = tested on: mouse; conditions: Subchronic oral toxicity in rodents, b6c3f1, Feed, dose end: 90 day, group: systemic, systemic / in life observation / body weight / body weight + systemic / in life observation / body weight / body weight gain + systemic / in…
[3] = tested on: rabbit; conditions: Prenatal developmental toxicity study, himalayan, Oral, Gavage/Intubation, dose end: 28 GD
[4] = tested on: rat; conditions: Subchronic oral toxicity in rodents, wistar, Feed, dose end: 90 day, group: systemic, systemic / pathology microscopic / stomach / hyperplasia + systemic / pathology microscopic / stomach / infiltration cellular + systemic / …
[5] = tested on: rat; conditions: Multigenerational reproductive toxicity study, wistar, Oral, Feed, dose end: 2 generation
[6] = tested on: rat; conditions: Combined chronic toxicity/carcinogenicity, fischer, Oral, Feed, dose end: 24 month, group: systemic
[7] = tested on: dog; conditions: Subchronic oral toxicity in nonrodent, beagle, Feed, dose end: 64 day, group: systemic, systemic / clinical chemistry / cytochrome p450, nos / cytochrome p450, nos + systemic / clinical chemistry / o-demethylase / o-demethylase…
[8] = systemic / hematology / leukocyte (wbc) count differential / leukocyte (wbc) + systemic / hematology / mean corpuscular hemoglobin (mch) / …
[9] = systemic / hematology / mean corpuscular hemoglobin concentration (mchc) / mean corpuscular hemoglobin concentration (mchc)
[10] = group: developmental, developmental / developmental malformation / bone / absent + developmental / developmental malformation / bone / enlarged fontanel + …
[11] = group: maternal, reproductive / reproductive performance / aborted / aborted + systemic / in life observation / body weight / body weight + systemic / in …
[12] = group: parental, systemic / pathology microscopic / stomach / vacuolization
[13] = group: reproductive, reproductive / offspring survival early / birth index / live birth index
[14] = systemic / organ weight / kidney / relative to body weight

`CCCOc1nn(C(=O)[N-]S(=O)(=O)c2ccccc2C(=O)OC)c(=O)n1C.[Na+]` [Propoxycarbazone-sodium] was tested, and the LOAEL [1, 8] was > 1880 mg/kg/day, the NOAEL [1, 8] was ≥ 1880 mg/kg/day and the LEL [1, 9] was 74.6 mg/kg/day. For the same compound, the NEL [1, 9] was < 74.6 mg/kg/day, the LEL [2] was 860 mg/kg/day and the LOAEL [2] was 860 mg/kg/day. It also gave an NEL [2] of 205 mg/kg/day, an NOAEL [2] of 205 mg/kg/day and an LEL [3, 10] of 1000 mg/kg/day. For the same compound, the LOAEL [3, 10] was > 1000 mg/kg/day, the NEL [3, 10] was 500 mg/kg/day and the NOAEL [3, 10] was ≥ 1000 mg/kg/day. It also gave an LEL [3, 11] of 500 mg/kg/day, an LOAEL [3, 11] of 500 mg/kg/day and an NEL [3, 11] of 100 mg/kg/day. The NOAEL [3, 11] was 100 mg/kg/day, the LEL [4] was 1510 mg/kg/day and the LOAEL [4] was 1510 mg/kg/day. For the same compound, the NEL [4] was 286 mg/kg/day, the NOAEL [4] was 286 mg/kg/day and the LEL [5, 12] was 323 mg/kg/day. For the same compound, the LOAEL [5, 12] was 323 mg/kg/day, the NEL [5, 12] was 79.6 mg/kg/day and the NOAEL [5, 12] was 79.6 mg/kg/day. For the same compound, the LEL [5, 13] was 1310 mg/kg/day, the LOAEL [5, 13] was 1310 mg/kg/day and the NEL [5, 13] was 323 mg/kg/day. It also gave an NOAEL [5, 13] of 323 mg/kg/day, an LOAEL ([6]; systemic / in life observation / body weight / body weight gain + systemic / urinalysis / ph / ph) of 459 mg/kg/day and an NOAEL ([6]; systemic / in life observation / body weight / body weight gain + systemic / urinalysis / ph / ph + systemic / pathology gross / full gross …) of 43 mg/kg/day. For the same compound, the LEL [6, 14] was 43 mg/kg/day, the NEL [6, 14] was < 43 mg/kg/day and the LEL [7] was 1180 mg/kg/day. For the same compound, the LOAEL [7] was > 1180 mg/kg/day, the NEL [7] was 286 mg/kg/day and the NOAEL [7] was ≥ 1180 mg/kg/day.
